± gives the expanded uncertainty stated by the source.
Conditions: 101.33 kPa, Liquid; for electrical conductivity: Alternating current cell with electrodes; for viscosity: Falling or rolling sphere viscometry; for mass density: Vibrating tube method

O=S(=O)([N-]S(=O)(=O)C(F)(F)F)C(F)(F)F.OCC[n+]1ccccc1
electrical conductivity (273.15 K): 0.0435 ± 0.04 S/m
viscosity (273.15 K): 645 ± 56 mPa·s
mass density (273.15 K): 1614.7 ± 0.8 kg/m3
electrical conductivity (278.15 K): 0.0655 ± 0.04 S/m
viscosity (278.15 K): 421.9 ± 30 mPa·s
mass density (278.15 K): 1609.2 ± 0.8 kg/m3
electrical conductivity (283.15 K): 0.0945 ± 0.04 S/m
viscosity (283.15 K): 285.8 ± 17 mPa·s
mass density (283.15 K): 1604 ± 0.8 kg/m3
electrical conductivity (288.15 K): 0.132 ± 0.04 S/m
viscosity (288.15 K): 200.9 ± 9.5 mPa·s
mass density (288.15 K): 1599.44 ± 0.78 kg/m3
electrical conductivity (293.15 K): 0.178 ± 0.04 S/m
viscosity (293.15 K): 145.7 ± 5.3 mPa·s
mass density (293.15 K): 1594.47 ± 0.77 kg/m3
electrical conductivity (298.15 K): 0.233 ± 0.04 S/m
viscosity (298.15 K): 108.7 ± 2.9 mPa·s
mass density (298.15 K): 1589.51 ± 0.77 kg/m3
electrical conductivity (303.15 K): 0.299 ± 0.04 S/m
viscosity (303.15 K): 83.19 ± 1.5 mPa·s
mass density (303.15 K): 1584.59 ± 0.76 kg/m3
electrical conductivity (313.15 K): 0.461 ± 0.04 S/m
viscosity (313.15 K): 52.03 ± 0.28 mPa·s
mass density (313.15 K): 1574.82 ± 0.75 kg/m3
electrical conductivity (323.15 K): 0.668 ± 0.04 S/m
viscosity (323.15 K): 34.91 ± 0.32 mPa·s
mass density (323.15 K): 1565.16 ± 0.74 kg/m3
electrical conductivity (333.15 K): 0.912 ± 0.04 S/m
viscosity (333.15 K): 24.77 ± 0.23 mPa·s
mass density (333.15 K): 1555.59 ± 0.73 kg/m3
electrical conductivity (343.15 K): 1.2 ± 0.04 S/m
viscosity (343.15 K): 18.37 ± 0.17 mPa·s
mass density (343.15 K): 1546.08 ± 0.72 kg/m3
electrical conductivity (353.15 K): 1.52 ± 0.04 S/m
viscosity (353.15 K): 14.12 ± 0.13 mPa·s
mass density (353.15 K): 1536.66 ± 0.71 kg/m3
viscosity (363.15 K): 11.18 ± 0.11 mPa·s
mass density (363.15 K): 1527.29 ± 0.7 kg/m3

Source: the NIST ThermoML archive (doi:10.1016/j.fluid.2013.01.003)
